# Reference: the supplement of paper PMC10702517
# ± gives the standard deviation.
# Columns and labels:
# [1] = chemical recovery from spiked human plasma; higher = better extraction; details: pooled human plasma
# [2] = chemical recovery into PDMS from spiked human plasma; higher = better extraction; details: pooled human plasma, extraction method: PES with PDMS
# [3] = chemical recovery by SPE of plasma after PDMS sampling; higher = better extraction; details: pooled human plasma, extraction method: HLB SPE of plasma after PES
# [4] = extraction method: SPE only (HLB 96-well), PES comparison experiment
# [5] = extraction method: PES+SPE (3 d PDMS equilibration then HLB SPE)
# [6] = extraction method: SPE only (HLB 96-well)
# [7] = extraction method: solvent precipitation (ACN + hexane)
# 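Throughout, for chemical recovery by SPE of plasma after PDMS sampling: over 400 spiked chemicals quantified by LC-HRMS or GC-HRMS via internal standard calibration, recovery relative to spike mix added to unspiked plasma extract to correct matrix effects.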
chemical recovery by SPE of plasma ([3]; equilibration time (d): 3),chemical recovery by SPE of plasma ([3]; equilibration time (d): 6),"chemical recovery [1, 5]",SMILES,"chemical recovery [1, 4]",chemical recovery into PDMS ([2]; equilibration time (d): 1),chemical recovery into PDMS ([2]; equilibration time (d): 3),chemical recovery into PDMS ([2]; equilibration time (d): 6),chemical recovery by SPE of plasma ([3]; equilibration time (d): 1),"chemical recovery [1, 6]","chemical recovery [1, 7]"
12 ± 2.1%,11.5 ± 4.2%,,"ClC=C(c1ccc(Cl)cc1)c1ccc(Cl)cc1 [4,4-DDMU]",,,67.8 ± 4.7%,62.3 ± 4.6%,11.4 ± 8%,,
5.92 ± 1.7%,10 ± 3.9%,3.92 ± 0.79%,NC(=O)c1ccc(N)cc1 [4-Aminobenzamide],,0.339 ± 0.59%,0.844 ± 0.17%,0.572 ± 0.1%,,3.28 ± 2.1%,98.6 ± 21%
60.3 ± 4.6%,56.6 ± 5.1%,47.1 ± 4.1%,O=C(O)CCC(=O)c1ccc(F)cc1 [4-Fluorobenzoylpropionic acid],59.7 ± 7.3%,,0.0416 ± 0.072%,0.0611 ± 0.11%,60.4 ± 6.4%,42.5 ± 2%,64 ± 7.2%
2 ± 0.34%,1.85 ± 0.12%,,c1cc2c3c(c1)ccc1cccc(c13)C2 [4H-Cyclopenta(def)phenanthrene],19.6 ± 3.7%,94.4 ± 32%,93.2 ± 14%,108 ± 43%,1.81 ± 1.4%,,
55.2 ± 5%,52.3 ± 6.8%,44.7 ± 2.5%,Clc1ccc2[nH]nnc2c1 [5-Chlorobenzotriazole],52.8 ± 6.1%,0.3 ± 0.043%,0.905 ± 0.21%,1.34 ± 0.43%,55.2 ± 9.2%,41.8 ± 2.6%,59.3 ± 5%
42.2 ± 5.6%,36 ± 2.7%,54.6 ± 2.9%,Cc1ccc2[nH]nnc2c1 [5-Methyl-1H-benzotriazole],51.7 ± 8.2%,3.14 ± 0.15%,6.47 ± 1.2%,8.16 ± 2%,45.5 ± 4.2%,46.3 ± 3%,58.1 ± 3.9%
4.96 ± 0.66%,2.87 ± 0.15%,42.9 ± 6.9%,CCNc1ccc2c(C)cc(=O)oc2c1 [7-(Ethylamino)-4-methylcoumarin],50 ± 6%,26.7 ± 4.1%,28.7 ± 3%,30.7 ± 1.9%,6.09 ± 0.59%,45.6 ± 5.5%,77.9 ± 3.2%
34.9 ± 3.5%,28.3 ± 3.2%,42.6 ± 3.4%,Cc1cc(=O)oc2cc(N)ccc12 [7-Amino-4-methylcoumarin],53.5 ± 9.9%,12.65 ± 0.075%,17.9 ± 2.4%,18.9 ± 2.1%,39.4 ± 4.9%,,70.4 ± 2%
,0.409 ± 0.71%,,"c1ccc2c(c1)=c1ccc3c4c(ccc=2c14)=c1ccccc1=3 [Indeno(1,2,3-cd)fluoranthene]",,70.5 ± 4%,79.7 ± 9.8%,77.5 ± 5.2%,,,
1.87 ± 3.2%,,,C=CC[C@@H]1/C=C(\C)C[C@H](C)C[C@H](OC)[C@H]2O[C@@](O)(C(=O)C(=O)N3CCCC[C@H]3C(=O)O[C@H](/C(C)=C/[C@@H]3CC[C@@H](O)[C@H](OC)C3)[C@H](C)[C@@H](O)CC1=O)[C@H](C)C[C@@H]2OC [Tacrolimus],,23.3 ± 2.5%,27.6 ± 2.7%,30.5 ± 2.2%,5.46 ± 2.7%,,
,,,CC1(C)[C@H](C=C(Cl)Cl)[C@H]1C(=O)OCc1c(F)c(F)cc(F)c1F [Transfluthrin],13.8 ± 3.7%,79.7 ± 14%,113 ± 37%,92.7 ± 12%,,0.85 ± 0.086%,31.9 ± 2.4%
,,,CC(C)COP(=O)(OCC(C)C)OCC(C)C [Tri-isobutylphosphate],31.3 ± 5.5%,37.6 ± 1.3%,39.9 ± 4.4%,39.9 ± 2.7%,,,
,,,CC(C)(C)C(O)C(Oc1ccc(Cl)cc1)n1cncn1 (stereo unspecified) [Triadimenol],47.4 ± 7.7%,39.4 ± 1.5%,43.5 ± 3.8%,43.6 ± 0.11%,,,68.9 ± 3.2%
,,,CC(C)N(C(=O)SCC(Cl)=C(Cl)Cl)C(C)C [Triallate],22.8 ± 6.1%,29 ± 1.7%,32.2 ± 4%,29.8 ± 1.9%,,16.3 ± 5%,76.8 ± 11%
,,,COc1cc(Cl)ccc1Oc1ccc(Cl)cc1Cl [Triclosan-methyl],12.2 ± 2.8%,,,84.6 ± 26%,,0.483 ± 0.13%,22.2 ± 1.1%
,,,Cc1ccc(OP(=O)(Oc2ccc(C)cc2)Oc2ccc(C)cc2)cc1 [Tricresylphosphate],25.4 ± 4.9%,54.2 ± 6.3%,56.1 ± 5.2%,54 ± 3.2%,,44.8 ± 12%,
,,,CO/N=C(/C(=O)OC)c1ccccc1CO/N=C(\C)c1cccc(C(F)(F)F)c1 [Trifloxystrobin],45.4 ± 8.7%,47.2 ± 4.1%,47.8 ± 5.8%,47.3 ± 3.1%,,48 ± 6.8%,
,,,O=P(Oc1ccccc1)(Oc1ccccc1)Oc1ccccc1 [Triphenylphosphate],41.3 ± 5.6%,41.3 ± 4.4%,43.5 ± 3.7%,42 ± 2.9%,,57.9 ± 4.8%,88.1 ± 6.6%
,,,Cl[C@H]1[C@H](Cl)[C@@H](Cl)[C@H](Cl)[C@H](Cl)[C@H]1Cl [alpha-HCH],25.5 ± 5.6%,56.7 ± 14%,69.9 ± 18%,66.1 ± 14%,,,
,,,O=S1OC[C@@H]2[C@H](CO1)[C@]1(Cl)C(Cl)=C(Cl)[C@]2(Cl)C1(Cl)Cl (stereo partly drawn) [beta-Endosulfan],15.9 ± 3.6%,60.6 ± 7.8%,77.8 ± 18%,80.6 ± 18%,,3.92 ± 1.1%,17.7 ± 8.9%
,,,Cl[C@H]1[C@H](Cl)[C@@H](Cl)[C@@H](Cl)[C@H](Cl)[C@H]1Cl [gamma-HCH],9.76 ± 0.99%,,57.4 ± 18%,58.6 ± 18%,,,26.2 ± 8.1%

SMILES,chemical recovery by SPE of plasma ([3]; equilibration time (d): 3),chemical recovery by SPE of plasma ([3]; equilibration time (d): 6),"chemical recovery [1, 5]","chemical recovery [1, 4]",chemical recovery into PDMS ([2]; equilibration time (d): 1),chemical recovery into PDMS ([2]; equilibration time (d): 3),chemical recovery into PDMS ([2]; equilibration time (d): 6),chemical recovery by SPE of plasma ([3]; equilibration time (d): 1),"chemical recovery [1, 6]","chemical recovery [1, 7]"
"ClC(Cl)=C(c1ccc(Cl)cc1)c1ccc(Cl)cc1 [4,4-DDE]",0.268 ± 0.47%,,,13 ± 3%,83.8 ± 12%,87.9 ± 3.9%,93 ± 13%,0.964 ± 1%,,
"C[C@]12CCC(=O)C=C1CC[C@@H]1[C@@H]2CC[C@]2(C)C(=O)CC[C@@H]12 [4-Androstene-3,17-dione]",4.32 ± 1.8%,1.36 ± 1.8%,,49.8 ± 8.7%,39.8 ± 3%,43.4 ± 1.7%,42.6 ± 3.7%,1.37 ± 2.1%,,
Nc1ccc(Cl)cc1 [4-Chloroaniline],14.6 ± 1.5%,9.71 ± 1.7%,,,6.69 ± 4.3%,5.92 ± 5.1%,5.47 ± 3.5%,11.4 ± 2.3%,16.4 ± 6.2%,
O=[N+]([O-])c1cc[n+]([O-])c2ccccc12 [4-Nitroquinoline-1-oxide],18.4 ± 2.5%,13.5 ± 1.6%,,42.3 ± 8.4%,14.2 ± 0.49%,14.7 ± 1.4%,17 ± 0.8%,15.1 ± 2.7%,,
C[C@]12CCC(=O)C=C1CC[C@@H]1[C@@H]2CC[C@@]2(C)[C@H]1CC[C@]2(C)O [17alpha-Methyltestosterone],12.4 ± 1.8%,7.08 ± 1.2%,,,34.6 ± 2.1%,36.4 ± 2.9%,37.6 ± 0.76%,7.99 ± 6.9%,,
CC(C1CC1)C(O)(Cn1cncn1)c1ccc(Cl)cc1 (stereo unspecified) [Cyproconazole],2.32 ± 0.46%,1.25 ± 0.088%,,,37.7 ± 1.8%,41.6 ± 3.6%,41 ± 0.84%,2.91 ± 0.36%,,
CO/N=C(/C1=NOCCO1)c1ccccc1Oc1ncnc(Oc2ccccc2Cl)c1F [Fluoxastrobin],0.629 ± 1.1%,0.277 ± 0.48%,,,45.4 ± 3.9%,50.3 ± 4.7%,47.2 ± 5.7%,0.73 ± 1.3%,,
ClC1=C(Cl)C2(Cl)C3C4OC4C(Cl)C3C1(Cl)C2(Cl)Cl (stereo unspecified) [Heptachlorepoxide],2.34 ± 0.82%,1.89 ± 0.21%,,,,99.4 ± 13%,,1.72 ± 1.8%,,
Cl[C@H]1[C@H](Cl)[C@@H](Cl)[C@H](Cl)[C@@H](Cl)[C@@H]1Cl [beta-HCH],,,192 ± 11%,26.6 ± 2.1%,,80.5 ± 10%,77.1 ± 5.9%,,,33.3 ± 5.6%
